How the values were obtained:
[1] = target: T1, glutathione S-transferase (GST)-fused full-length human Syk protein (Homo sapiens, UniProt P43405); experiment: Syk enzyme assay; format: biochemical; details: Syk enzyme assay, Test Example 1; read-out: IC50 of Syk-inhibitory activity
T1 construct: (GST)-fused full-length human Syk protein; GST (glutathione S-transferase); purchased Carna Biosciences
Method in brief: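 Baculovirus-expressed enzyme (1.2 ng) was preincubated with compound in HEPES pH 7.0/MgCl2/DTT buffer, 2 min shaking then 13 min at room temperature. Biotin-EDPDYEWPSA-NH2 (0.4 μM final) and ATP (27 μM final) were added for 40 min at room temperature. EDTA stop, streptavidin-XL/PT66-K TR-FRET at 615/665 nm gave IC50.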

[2] = tested on: THP-1 cells; experiment: TNFα generation assay; format: cell-based, human; details: Homo sapiens, THP-1, THP-1 cells; Table 22; read-out: IC50 in TNFα generation assay
Method in brief: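 THP-1 cells differentiated to macrophage-like cells with 10 ng/ml IFN-γ for 2 days, preincubated with compound 30 min at room temperature, then cultured 7 h on plates coated with human IgG (10 μg/ml). Secreted TNFα measured by ELISA or AlphaLISA.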

Structure (SMILES) | IC50 [1] [nM] | IC50 [2] [nM]
NC(=O)c1cc(F)c(N[C@@H]2CCCC[C@@H]2N)nc1Nc1cncc(-c2cnn(Cc3ccccc3)c2)c1 (relative stereo) [Example 004-075, 6-(cis-2-aminocyclohexylamino)-2-((5-(1-benzyl-1H-pyrazol-4-yl)pyridin-3-yl)amino)-5-fluoronicotinamide] | < 10 | 130 to 200
NC(=O)c1cc(F)c(N[C@@H]2CCCC[C@@H]2N)nc1Nc1cncc(-c2ccc3[nH]ccc3c2)c1 (relative stereo) [Example 004-076, 2-((5-(1H-indol-5-yl)pyridin-3-yl)amino)-6-(cis-2-aminocyclohexylamino)-5-fluoronicotinamide] | < 10 | 130 to 200
NC(=O)c1cc(F)c(N[C@@H]2CCCC[C@@H]2N)nc1Nc1cncc(-c2ccsc2)c1 (relative stereo) [Example 004-077, 6-(cis-2-aminocyclohexylamino)-5-fluoro-2-((5-(thiophene-3-yl)pyridin-3-yl)amino)-nicotinamide] | < 10 | 65 to 130
NC(=O)c1cc(F)c(N[C@@H]2CCCC[C@@H]2N)nc1Nc1cncc(-c2ccoc2)c1 (relative stereo) [Example 004-078, 6-(cis-2-aminocyclohexylamino)-5-fluoro-2-((5-(furan-3-yl)pyridin-3-yl)amino)-nicotinamide] | < 10 | 65 to 130
NC(=O)c1cc(F)c(N[C@@H]2CCCC[C@@H]2N)nc1Nc1cc(F)cc2[nH]ccc12 (relative stereo) [Example 004-082, 6-(cis-2-aminocyclohexylamino)-5-fluoro-2-((6-fluoro-1H-indol-4-yl)amino)nicotinamide] | < 10 | 130 to 200
NC(=O)c1cc(F)c(N[C@@H]2CCCC[C@@H]2N)nc1Nc1cc([N+](=O)[O-])c2[nH]ccc2c1 (relative stereo) [Example 004-089, 6-(cis-2-aminocyclohexylamino)-5-fluoro-2-((7-nitro-1H-indol-5-yl)amino)nicotinamide] | < 10 | 65 to 130
COCCn1ncc2cc(Nc3nc(N[C@@H]4CCCC[C@@H]4N)c(F)cc3C(N)=O)ccc21 (relative stereo) [Example 004-091, 6-(cis-2-aminocyclohexylamino)-5-fluoro-2-((1-(2-methoxyethyl)-1H-indazol-5-yl)amino)-nicotinamide] | < 10 | 65 to 130
CCOCCOCCn1ncc2cc(Nc3nc(N[C@@H]4CCCC[C@@H]4N)c(F)cc3C(N)=O)ccc21 (relative stereo) [Example 004-092, 6-(cis-2-aminocyclohexylamino)-2-((1-(2-(2-ethoxyethoxy)ethyl)-1H-indazol-5-yl)amino)-5-fluoronicotinamide] | < 10 | 65 to 130
NC(=O)c1cc(F)c(N[C@@H]2CCCC[C@@H]2N)nc1Nc1ccc2nn(CC3CC3)cc2c1 (relative stereo) [Example 004-093, 6-(cis-2-aminocyclohexylamino)-2-((2-(cyclopropylmethyl)-2H-indazol-5-yl)amino)-5-fluoronicotinamide] | < 10 | 130 to 200
COCCn1cc2cc(Nc3nc(N[C@@H]4CCCC[C@@H]4N)c(F)cc3C(N)=O)ccc2n1 (relative stereo) [Example 004-094, 6-(cis-2-aminocyclohexylamino)-5-fluoro-2-((2-(2-methoxyethyl)-2H-indazol-5-yl)amino)-nicotinamide] | < 10 | 130 to 200
CCOCCOCCn1cc2cc(Nc3nc(N[C@@H]4CCCC[C@@H]4N)c(F)cc3C(N)=O)ccc2n1 (relative stereo) [Example 004-095, 6-(cis-2-aminocyclohexylamino)-2-((2-(2-(2-ethoxyethoxy)ethyl)-2H-indazol-5-yl)amino)-5-fluoronicotinamide] | < 10 | 130 to 200
NC(=O)c1cc(F)c(N[C@@H]2CCCC[C@@H]2N)nc1Nc1cccnc1 (relative stereo) [Example 004-096, 6-(cis-2-aminocyclohexylamino)-5-fluoro-2-((pyridin-3-yl)amino)nicotinamide] | 10 to 50 | 65 to 130

Reference: patent US8895585B2, “Nicotinamide derivative or salt thereof” (FUJIFILM Corporation, priority 2010, dated 2014)
